The source of these data is EP0393973A1, “Antitumor Agent Indicated for lung cancer” (priority 1989, dated 1990).

Molecules are shown by their SMILES.

Series [1] has as its system sarcoma 180. Particulars: oral administration to mice bearing sarcoma 180; cited from earlier work.
In series [2] the test system is platelet aggregation. Put plainly: Suppression of platelet aggregation. The settings on record: substance per se.
The subject of series [3] is chicken embryos. The settings on record: cited from earlier work.
The nature of series [4]: Observation of gastric mucosa after oral dosing of normal rats. Particulars: rat, in vivo. From the text:
It was therefore assumed that a massive dose of citral or lemongrass oil which contains citral as its principal constituent would adversely affect normal cells. • (2) Instead of dosing lemongrass oil directly to normal rats, lemongrass oil or citral in β-cyclodextrin clathrates was mixed with feed.

Regarding `CC(C)=CCCC(C)=CC=O` [Citral, citral], in series [1], the “growth of cancer cells” value is recorded as “suppresses growth of cancer cells”. For the same molecule, the platelet aggregation entry in series [2] is given as “strongly suppresses”. For the same molecule, in series [3], the teratogenicity entry was “teratogenic”. Also, in series [4], the “findings on the gastric mucosa” value is “petechiae were observed on the gastric mucosa”.
